Counter-ions that a name gives are not always drawn. Like-named read-outs stand apart in the source and are kept apart here. Values belong to the compound of their own block, whether it stands above or below them.
Tests used:
[1] = Percent complex determination, samarium complexes (Sephadex C-25 cation exchange); format: physicochemical; conditions: for % Complex, Sm / % Complex (10:1), Sm: samarium; for % Complex, Sm: ligand/metal ratio about 50:1 (** footnote); for % Complex (10:1), Sm: ligand/metal 10:1
Description: (§1) A disposable 10 ml plastic (Biorad) column was filled with 1 to 2 ml of water-swelled Sephadex™ C-25 cation exchange resin. The water was pressure eluted to the top of the resin. Fifteen μl of the complex (or more if counts were low) were added to the top of the resin. This was followed by 2 ml of 4:1 (V:V) isotonic saline:conc. ammonium hydroxide solution as an eluent which was allowed to drip into a counting tube. This was also pressure eluted to the top of the resin. An additional 2 ml of the eluent were added and the column pressure eluted to remove all liquid. The dried resin was then placed in a third counting tube and the three tubes counted on a NaI well counter using a Canberra multichannel analyzer linked to a computer. The percent complex was determined by dividing the number of counts in the two elutions by the total counts in the elutions plus the column, all times 100.
Percent complex determination was made in the same manner as for the yttrium complex.

[2] = Inertness of samarium complex versus pH; format: physicochemical; conditions: Sm
Description: as §1, with “100. By this method, uncomplexed yttrium was retained on the column.” for “100.”
(§2) One portion was treated with 1-2 μl portions of 0.1N hydrochloric acid until the pH was lowered and the other portion was treated with 0.1N sodium hydroxide to bring the pH up. The complexes were allowed to set for 5-10 minutes at each pH change, then they were sampled to determine the percent complexation at that pH by the method described for Examples 16 through 33.
as §2, with “of 1.0N” for “of 0.1N”, “with 0.1N, 1.0N and 50 weight %” for “with 0.1N”, “for about 5” for “for 5-10”

[3] = Percent complex determination, yttrium complexes (Sephadex C-25 cation exchange); format: physicochemical; conditions: for % Complex (10:1), Y: ligand/metal 10:1, pH 7.4
Description: Complexes were made by preparing a 0.0003M yttrium solution in water. (YCl3.6H2 O, 303.26 g/mole; Y(OAc)3, 12.1% H2 O). Radioactive YCl3 (Oakridge National Laboratories) was added to give the desired number of counts. Ten μl of ligand solution (at 0.03M) were added to 990 μl of the Y solution, giving a ligand-to-metal ratio of 1:1. (Ten times the amount of ligand solution was used for a 10:1 ligand to metal ratio.) The pH was then adjusted to 7.4 using microliter quantities of hydrochloric acid or sodium hydroxide. The solution was then tested for the amount of complexed yttrium using the cation exchange method given below.
as §1, with “100. By this method, uncomplexed yttrium was retained on the column.” for “100.”

[4] = rat, in vivo, 120 min; for % Injected Dose in Liver: iv
[5] = complexes with Sc-46, Y-91, La-140 and Sm-153; chelant to metal 5:1; cited from earlier work
[6] = In vivo biodistribution of chelates in rats (% dose in organs); conditions: rat, 2 hours after i.v. injection
[7] = Complex study: percent yttrium complex after addition of excess metal (lability); format: physicochemical
Description: as §1, with “100. By this method, uncomplexed yttrium was retained on the column.” for “100.”
The 1:1 complex of yttrium with 1-(p-aminobenzyl)diethylenetriaminepentaacetic acid (ABDTPA), a well known bifunctional chelant used in the literature, and with the ligand of Example 2 (Now Ex. XVI) and Example 12 (now Ex. XVII) were prepared using the techniques described earlier. Several 100 microliter aliquots were then withdrawn into separate centrifuge tubes. Excess metal was added such that the total volume change is minimized and the time noted. One-half hour after metal addition, the percent complex was determined by the Sephadex™ C-25 method and this was compared to the original amount of complex. The percent complex versus added metal gives an indication as to the lability of the ligand-metal complex. Results are given below and are compared to the EDTA-yttrium complex.

[8] = patients with metastatic bone lesions; cited from earlier work
[9] = Sm complex, ligand/metal about 300:1 (Examples D and E)
[10] = metal/ligand molar ratio 500, one-half hour after metal addition

percent complexation, Sm ([1]; as prepared, pH adjusted to about 7): 96%
% Complex, Sm [1]: > 99%
% Complexed ([2]; pH 1, about 5 minutes): 91%
% Complexed ([2]; pH 2, about 5 minutes): 88%
% Complexed ([2]; pH 3, about 5 minutes): 92%
% Complexed ([2]; pH 5, about 5 minutes): 96%
% Complexed ([2]; pH 7, about 5 minutes): 96%
% Complexed ([2]; pH 9, about 5 minutes): 99%
% Complexed ([2]; pH 12, about 5 minutes): 98%
% Complexed ([2]; pH 13, about 5 minutes): 99%
Compound: Nc1ccc(OCC(=O)O)c(C(C(=O)O)N(CCN(CCN(CC(=O)O)CC(=O)O)CC(=O)O)CC(=O)O)c1 (stereo not drawn) [Example 8, 2-[{2-[(2-{[BIS(CARBOXYMETHYL)]-AMINO}ETHYL)(CARBOXYMETHYL)AMINO]ETHYL}(CARBOXYMETHYL)AMINO]-2-[5-AMINO-2-(CARBOXYMETHYLOXY)PHENYL]ETHANOIC ACID]

% Complex (10:1), Y [3]: 98%
% dose in the blood [4]: 0.57%
% dose in the bone [4]: 56.1%
% dose in the muscle [4]: 0.78%
% dose in the spleen [4]: 0.03%
% Injected Dose in Liver [4]: 0.87%
Compound: CC(=O)Nc1ccc(O)c(C(NCCN(CC(=O)O)CC(=O)O)C(=O)O)c1 (stereo not drawn) [Example 1, 2-[(2-{[bis(carboxymethyl)]amino}ethyl)amino]-2-(5-acetamido-2-hydroxyphenyl)ethanoic acid]

% Complex (10:1), Y [3]: 99%
% Complex, Y ([3]; ligand/metal ratio about 1:1 (* footnote)): 98%
Compound: CC(=O)Nc1cc(CN(CCN(CC(=O)O)CC(=O)O)CC(=O)O)c(O)c(CN(CCN(CC(=O)O)CC(=O)O)CC(=O)O)c1 [Example 11]

% Complex (10:1), Y [3]: > 99%
% Injected Dose in Liver [4]: 0.22%
Compound: Nc1ccc(OCC(=O)O)c(C(C(=O)O)N(CCN(CC(=O)O)CC(=O)O)CC(=O)O)c1 (stereo not drawn) [Example 3, 2-[(2-{[BIS(CARBOXYMETHYL)]AMINO}ETHYL)(CARBOXYMETHYL)AMINO]-2-[5-AMINO-2- (CARBOXYMETHLOXY)PHENYL]ETHANOIC ACID, PENTA SODIUM SALT]

Compound: O=C(O)CN(CC(=O)O)CC(=O)O [NTA, nitrilotri-acetic acid, reference compound]
organ distribution of radioactivity [5]: high concentrations of radioactivity were observed in the liver, spleen, kidney, lung and bone
% Injected Dose in Liver [6, 9]: 8.6%

% Injected Dose in Liver [4]: 24%
Compound: Nc1ccc(O)c(C(NCCNC(C(=O)O)c2cc(N)ccc2O)C(=O)O)c1 (stereo not drawn) [Example X, ethylenediaminedi(2-hydroxy-5-aminophenyl)acetic acid, reference compound]

Compound: 2-[bis(2-{[(bis(carboxymethyl)]amino}ethyl)amino]-2-[5-acetamido-2-(carboxymethyloxy)phenyl]ethanoic acid and 2-[{2-[(2-{[bis(carboxymethyl)]amino}ethyl)(carboxymethyl)amino]ethyl}(carboxymethyl)amino]-2-[5-acetamido-2-(carboxymethyloxy)-phenyl]ethanoic acid [Example 6]
% Complex (10:1), Sm [1]: > 99%
% Injected Dose in Liver ([6]; Sm complex, ligand/metal 10:1): 0.38%

% Complex (10:1), Y [3]: 99%
% Injected Dose in Liver [4]: 0.37%
Compound: CC(=O)Nc1cc(CN(CCN(CC(=O)O)CC(=O)O)CC(=O)O)c(O)c(CN(CC(=O)O)CC(=O)O)c1 [Example 15, 2-({[BIS(CARBOXYMETHYL)]AMINO}METHYL)-6-{[({[BIS(CARBOXYMETHYL)]AMINO}ETHYL)(CARBOXYMETHYL)AMINO]METHYL}-4-(ACETAMIDO)PHENOL]

Compound: O=C(O)CN(CCN(CC(=O)O)CC(=O)O)CC(=O)O [EDTA, ethylenediaminetetraacetic acid]
% Complex ([7]; metal/ligand molar ratio 250, one-half hour after metal addition): 48%
% Complex [7, 10]: 16%
organ distribution of radioactivity [5]: high concentrations of radioactivity were observed in the liver, spleen, kidney, lung and bone
% Injected Dose in Liver ([6]; Sm complex, ligand/metal 5:1): 8.4%
% Injected Dose in Liver [6, 9]: 4.4%

% Complex (10:1), Y [3]: > 99%
% Complex (10:1), Sm [1]: > 99%
% Complex [7, 10]: 75%
% Injected Dose in Liver [4]: 0.22%
Compound: CC(=O)Nc1ccc(OCC(=O)O)c(C(C(=O)O)N(CCN(CC(=O)O)CC(=O)O)CC(=O)O)c1 (stereo not drawn) [Example 2, 2-[(2-{[bis(carboxymethyl)]amino}ethyl)(carboxymethyl)amino]-2-[5-acetamido-2-(carboxymethyloxy)phenyl]ethanoic acid]

percent Sm complexed ([1]; as prepared, pH adjusted to about 7.5): 100%
% Complex, Sm [1]: 96%
% Complexed ([2]; pH 1, 5-10 minutes): 98%
% Complexed ([2]; pH 2, 5-10 minutes): 100%
% Complexed ([2]; pH 3, 5-10 minutes): 100%
% Complexed ([2]; pH 4, 5-10 minutes): 100%
% Complexed ([2]; pH 5, 5-10 minutes): 100%
% Complexed ([2]; pH 7, 5-10 minutes): 100%
% Complexed ([2]; pH 9, 5-10 minutes): 100%
% Complexed ([2]; pH 11, 5-10 minutes): 100%
% Complexed ([2]; pH 13, 5-10 minutes): 100%
Compound: 2-[BIS(2-{[(BIS(CARBOXYMETHYL)]AMINO}ETHYL)AMINO]-2-[5-AMINO-2-(CARBOXYMETHYLOXY)PHENYL]ETHANOIC ACID AND 2-[{2-[(2-{[BIS(CARBOXYMETHYL)]AMINO}ETHYL)(CARBOXYMETHYL)AMINO]ETHYL}(CARBOXYMETHYL)AMINO]-2-[5-AMINO-2-(CARBOXYMETHYLOXY)-PHENYL]ETHANOIC ACID [Example 7]

Compound: CC(=O)Nc1ccc(O)c(CN(CCN(CC(=O)O)Cc2cc(NC(C)=O)ccc2O)CC(=O)O)c1 [Example U, N,N'-DI(2-HYDROXY, 5-ACETAMIDOBENZYL)ETHYLENEDIAMINE-N,N'-DIACETIC ACID, reference compound]
% Injected Dose in Liver ([6]; Sm complex, comparative, ligand/metal ratio not stated): 12%

% Complex (10:1), Y [3]: > 99%
% Injected Dose in Liver [4]: 1.4%
Compound: CC(=O)Nc1ccc(O)c(C(C(=O)O)N(CC#N)CCN(CC(=O)O)CC(=O)O)c1 (stereo not drawn) [Example 4, 2-[(2-{[bis(carboxymethyl)]amino}ethyl)(cyanomethyl)amino]-2-(5-acetamido-2-hydroxyphenyl)ethanoic acid]

Compound: 2-[(2-[(2-[(2-{[BIS(CARBOXYMETHYL)]AMINO}ETHYL)(CARBOXYMETHYL)AMINO]ETHYL)(CARBOXYMETHYL)AMINO]ETHYL)(CARBOXYMETHYL)AMINO]-2-[5-ACETAMIDO-2-(CARBOXYMETHYLOXY)PHENYL]ETHANOIC ACID AND 2[(2-[(2-{[BIS(CARBOXYMETHYL)]AMINO}ETHYL)(CARBOXY-METHYL)AMINO]ETHYL)(2-{[BIS(CARBOXYMETHYL)]AMINO}-ETHYL)AMINO]-2-[5-ACETAMIDO-2-(CARBOXYMETHYLOXY)PHENYL]-ETHANOIC ACID [Example 9]
% Complex (10:1), Sm [1]: > 99%
% Injected Dose in Liver ([6]; Sm complex, ligand/metal 10:1): 2.8%

Compound: [89Sr] [Strontium-89]
blood levels [8]: high blood levels
lesion to normal bone ratios [8]: low lesion to normal bone ratios

Compound: [Cl][Sm]([Cl])[Cl] [SmCl3, samarium chloride, reference compound]
% Injected Dose in Liver ([6]; samarium chloride in unchelated form): 39%

% Complex (10:1), Y [3]: 99%
% Injected Dose in Liver [4]: 0.38%
Compound: Nc1ccc(O)c(C(C(=O)O)N(CCN(CC(=O)O)CC(=O)O)CC(=O)O)c1 (stereo not drawn) [Example 5, 2-[(2-{[BIS(CARBOXYMETHYL)]AMINO}ETHYL)(CARBOXYMETHYL)AMINO]-2-(5-AMINO-2- HYDROXYPHENYL)ETHANOIC ACID]

Source: patent US5696239A (The Dow Chemical Company, priority 1995, dated 1997)
